Assay [1] addresses T1, PTPN2 (i.e., TC-PTP) (Homo sapiens, UniProt P17706).
T1 sequence (P17706 1-415): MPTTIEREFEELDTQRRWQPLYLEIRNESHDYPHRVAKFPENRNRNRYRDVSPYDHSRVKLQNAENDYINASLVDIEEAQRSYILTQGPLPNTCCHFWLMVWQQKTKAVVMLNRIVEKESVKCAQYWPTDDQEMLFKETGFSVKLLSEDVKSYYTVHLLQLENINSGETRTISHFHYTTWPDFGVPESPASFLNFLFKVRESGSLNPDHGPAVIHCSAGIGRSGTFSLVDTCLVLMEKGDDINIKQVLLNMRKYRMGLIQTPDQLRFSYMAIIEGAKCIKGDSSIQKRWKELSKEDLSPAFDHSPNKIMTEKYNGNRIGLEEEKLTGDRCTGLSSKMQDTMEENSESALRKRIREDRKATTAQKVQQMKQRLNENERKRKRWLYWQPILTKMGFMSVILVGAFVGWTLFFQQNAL
Briefly: Phosphatase activity assay (DiFMUP substrate), PTPN2. Format: biochemical. Particulars: compounds binned ≤1 uM or >1 uM. The method, then:
(§1) The selectivity and potency of a small molecule PTPN2 inhibitor as provided herein against one or more protein tyrosine phosphatase (PTP) enzymes, and specifically against PTPN2, is assessed in various ways. The one or more PTP enzymes comprise Mycobacterium protein tyrosine phosphatase A (mPTPA), Mycobacterium protein tyrosine phosphatase B (mPTPB), PTPN1 (i.e., PTP1B), PTPN2 (i.e., TC-PTP), PTPN22 (i.e., LYP), SHP-1, SHP-2, FAP-1, Meg2, HePTP, Laforin, VHX, VHR, LMWPTP, Cdc14A, LAR, CD45, PTPRG, a fragment thereof, a variant thereof, and a combination thereof. Selectivity and potency of a small molecule PTPN2 inhibitor is evaluated using a PTP activity inhibition assay. The assay is performed using a buffer comprising 50 mM HEPES buffer pH 7.5, 150 mM NaCl, 0.5 mM EDTA, 1 mM DTT, 0.001% Tween-20.
(§2) The assay is performed using a phosphated substrate, e.g., 10 mM 6,8-Difluoro-4-Methylumbelliferyl Phosphate (DIFMUP) that is stored at −20° C. Alternatively or in addition to, the assay is performed using other phosphated substrate (e.g., fluorescein diphosphate). Each PTP enzyme is diluted in the assay buffer
(§3) The assay can be carried out at room temperature in multiplate format, e.g., using 384 well plates. A small molecule PTPN2 inhibitor dissolved in DMSO at one of 10 concentrations from a serial dilution or DMSO alone for control is added to each well. A mixture of the assay buffer comprising PTP enzyme (e.g., 0.025 ng/ul PTPN2) is added to each well and mixed for approximately 2 minutes. The reaction is initiated by adding DiFMUP diluted in the assay buffer to a final concentration of approximately 45 μM DiFMUP in PTPN2 assay. For each PTP enzyme, DiFMUP is added at the Km (Michaelis constant) of the enzyme that had been independently determined. The phosphatase activity of the PTP enzyme is assessed by monitoring appearance of a fluorescent product (6,8-difluoro-7-hydroxyl-4-coumarin (DiFMU) from DiFMUP) continuously for about 15 to 30 minutes, using the INFINITE M1000Pro plate reader (Tecan) with excitation at 360 nm and emission at 450 nm (cutoff filter at 435 nm) for DiFMU. Each assay is performed at least in duplicate. The rate (e.g., the initial rate) of DiFMU formation is plotted against the concentration of the small molecule PTPN2 inhibitor, and the data is fitted (e.g., using a 4-parameter equation) to determine the inflection point of the fit as the IC50 of the small molecule PTPN2 inhibitor for a specific enzyme. Utilizing this assay, the ability of the compounds in Table 2 to inhibit PTPN2 and PTP1B has been assessed. Table 3 summarizes the IC50 values.

The target in assay [2] is T2, PTPN1 (i.e., PTP1B) (Homo sapiens, UniProt P18031).
T2 sequence (P18031 1-435): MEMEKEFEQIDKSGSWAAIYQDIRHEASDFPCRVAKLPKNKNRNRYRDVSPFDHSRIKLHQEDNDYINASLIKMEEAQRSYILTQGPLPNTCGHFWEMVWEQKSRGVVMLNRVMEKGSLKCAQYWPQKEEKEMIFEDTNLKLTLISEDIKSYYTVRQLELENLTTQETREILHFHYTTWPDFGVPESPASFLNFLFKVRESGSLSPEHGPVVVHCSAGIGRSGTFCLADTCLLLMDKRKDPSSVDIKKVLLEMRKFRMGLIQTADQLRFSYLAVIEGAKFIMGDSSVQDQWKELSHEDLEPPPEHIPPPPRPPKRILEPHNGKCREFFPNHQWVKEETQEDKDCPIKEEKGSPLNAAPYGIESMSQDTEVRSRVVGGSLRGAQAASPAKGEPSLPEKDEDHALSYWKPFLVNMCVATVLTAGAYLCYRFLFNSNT
Briefly: Phosphatase activity assay (DiFMUP substrate), PTP1B. It counts as biochemical. Particulars: compounds binned ≤1 uM or >1 uM. The method, then:
as §1, §2, §3

Consider `CC(C)CCn1cc(-c2ccc(O)c(N3CC(=O)NS3(=O)=O)n2)cn1` [Compound 134, 5-(3-hydroxy-6-(1-isopentyl-1H-pyrazol-4-yl)pyridin-2-yl)-1,2,5-thiadiazolidin-3-one 1,1-dioxide], for which the IC50 in assay [1] and in assay [2] was > 1000 nM throughout.

Turning to `Nc1nc2ccc(-c3ccc(O)c(N4CC(=O)NS4(=O)=O)c3F)cc2s1` [Compound 135, 5-(3-(2-aminobenzo[d]thiazol-6-yl)-2-fluoro-6-hydroxyphenyl)-1,2,5-thiadiazolidin-3-one 1,1-dioxide], the IC50 in assay [1] and in assay [2] was ≤ 1000 nM throughout.

`O=C1CN(c2c(O)ccc(-c3ccnc(-c4ccccc4)c3)c2F)S(=O)(=O)N1` [Compound 136, 5-(2-fluoro-6-hydroxy-3-(2-phenylpyridin-4-yl)phenyl)-1,2,5-thiadiazolidin-3-one 1,1-dioxide]: the figures for the half-inhibitory concentration (IC50) in assay [1] and in assay [2] were > 1000 nM and ≤ 1000 nM, respectively.

For `CC(C)CNc1cccc(-c2ccc(O)c(N3CC(=O)NS3(=O)=O)c2F)c1` [Compound 137, 5-(2-fluoro-4-hydroxy-3′-(isobutylamino)-[1,1′-biphenyl]-3-yl)-1,2,5-thiadiazolidin-3-one 1,1-dioxide], the IC50 in assay [1] and in assay [2] was ≤ 1000 nM throughout.

Regarding `O=C1CN(c2c(O)ccc(-c3ccc4cccnc4c3)c2F)S(=O)(=O)N1` [Compound 138, 5-(2-fluoro-6-hydroxy-3-(quinolin-7-yl)phenyl)-1,2,5-thiadiazolidin-3-one 1,1-dioxide], the IC50 in assay [1] and in assay [2] was ≤ 1000 nM each time.

On to `Cc1ncc(-c2ccc(O)c(N3CC(=O)NS3(=O)=O)c2F)cn1` [Compound 139, 5-(2-fluoro-6-hydroxy-3-(2-methylpyrimidin-5-yl)phenyl)-1,2,5-thiadiazolidin-3-one 1,1-dioxide], for which the IC50 in assay [1] and in assay [2] was ≤ 1000 nM throughout.

Consider `O=C1CN(c2c(O)ccc(-c3cnn(CCO)c3)c2F)S(=O)(=O)N1` [Compound 140, 5-(2-fluoro-6-hydroxy-3-(1-(2-hydroxyethyl)-1H-pyrazol-4-yl)phenyl)-1,2,5-thiadiazolidin-3-one 1,1-dioxide], for which the IC50 in assay [1] and in assay [2] was ≤ 1000 nM throughout.

For the compound `Cc1nn(C)cc1-c1ccc(O)c(N2CC(=O)NS2(=O)=O)c1F` [Compound 142, 5-(3-(1,3-dimethyl-1H-pyrazol-4-yl)-2-fluoro-6-hydroxyphenyl)-1,2,5-thiadiazolidin-3-one 1,1-dioxide], the concentration for half-maximal inhibition (IC50) in assay [1] and in assay [2] was ≤ 1000 nM each time.

With `O=C1CN(c2c(O)ccc(-c3ccc(OCc4ccccc4)nc3)c2F)S(=O)(=O)N1` [Compound 143, 5-(3-(6-(benzyloxy)pyridin-3-yl)-2-fluoro-6-hydroxyphenyl)-1,2,5-thiadiazolidin-3-one 1,1-dioxide], the IC50 in assay [1] and in assay [2] was ≤ 1000 nM each time.

For the compound `N#Cc1ccc(-c2ccc(O)c(N3CC(=O)NS3(=O)=O)c2F)cn1` [Compound 144, 5-(3-(1,1-dioxido-4-oxo-1,2,5-thiadiazolidin-2-yl)-2-fluoro-4-hydroxyphenyl)picolinonitrile], the IC50 in assay [1] and in assay [2] was ≤ 1000 nM in each case.

For the compound `Cc1cc(-c2cnn(CCC(C)C)c2)cc(N2CC(=O)NS2(=O)=O)c1O` [Compound 145, 5-(2-hydroxy-5-(1-isopentyl-1H-pyrazol-4-yl)-3-methylphenyl)-1,2,5-thiadiazolidin-3-one 1,1-dioxide], the concentration for half-maximal inhibition (IC50) in assay [1] and in assay [2] was > 1000 nM in each case.

`O=C1CN(c2c(O)ccc(-c3cnn(-c4ccccc4)c3)c2F)S(=O)(=O)N1` [Compound 147, 5-(2-fluoro-6-hydroxy-3-(1-phenyl-1H-pyrazol-4-yl)phenyl)-1,2,5-thiadiazolidin-3-one 1,1-dioxide]: the half-inhibitory concentration (IC50) in assay [1] and in assay [2] was ≤ 1000 nM throughout.

Usually IC50 stands for the concentration that inhibits the measured activity by half.

Values taken from US20240398828A1, “HETERO-ATOM CONTAINING COMPOUNDS AND USES THEREOF” (Kumquat Biosciences Inc., priority 2021, published 2024).
